Source: patent publication US12319684B2 (Sanford Burnham Prebys Medical Discovery Institute, priority 2014, dated 2025)
Where two headings read alike, the source gives them in different places.

How the values were obtained:
vasopressin release = conditions: intracerebral injection; cited from earlier work
[1] = system: abdominal aortic aneurysms; conditions: mouse model of abdominal aortic aneurysms; cited from earlier work
[2] = biological target: T1, human apelin receptor (APJ, AGTRL-1, APLNR) (Homo sapiens, UniProt P35414); experiment: APJ cAMP cell-based assay (forskolin-stimulated CHO cells, enzyme fragment complementation); conditions: for Emax: CHO, 0.5 h, read-out: APJ cAMP % resp (efficacy)
T1 construct: host or cells: Chinese hamster ovary cells
T1 sequence (P35414 1-380): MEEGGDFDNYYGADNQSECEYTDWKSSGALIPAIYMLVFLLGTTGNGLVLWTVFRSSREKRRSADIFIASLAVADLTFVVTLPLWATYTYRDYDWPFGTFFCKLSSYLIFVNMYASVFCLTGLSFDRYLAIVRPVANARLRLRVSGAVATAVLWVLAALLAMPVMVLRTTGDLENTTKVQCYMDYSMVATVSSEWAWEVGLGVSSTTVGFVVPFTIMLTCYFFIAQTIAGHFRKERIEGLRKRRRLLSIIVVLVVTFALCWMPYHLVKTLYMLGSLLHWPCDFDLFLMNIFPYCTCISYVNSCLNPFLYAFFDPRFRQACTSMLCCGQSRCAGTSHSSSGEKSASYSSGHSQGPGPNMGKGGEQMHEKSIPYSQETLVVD
Protocol: The assays disclosed herein were performed using cell lines from DiscoveRx, Inc.
Biological activity was determined in a cell-based assay. This assay detects activation of the receptor by reporting on intracellular cyclic adenosine monophosphate (cAMP) level. Chinese hamster ovary cells engineered to express a stably integrated human apelin receptor (APJ, AGTRL-1, APLNR), were plated into the wells of a microtiter plate. Cells were stimulated with forskolin to increase intracellular cAMP. Immediately following, compounds were added at a range of final concentrations 0.0-100 μM, in DMSO (not to exceed a final DMSO concentration of >1% v/v), and allowed to incubate with the cells for 0.5 h. At the end of the incubation, cells were lysed to stop APJ signaling, and cAMP was quantified using a commercially available assay kit that applies enzyme fragment complementation technology and bioluminescence, in a competitive ELISA format.
Compound efficacy (% resp) is reported as a percentage of the maximal apelin-13 response at 1 nM (control).

[3] = CHO cells expressing human APJ, forskolin-stimulated, 0.5 h incubation, 50% of control (apelin-13, 1 nM) response, read-out: APJ cAMP EC50
[4] = percentage of the maximal apelin-13 response at 1 nM (control)

Molecule | EC50 [2, 3] [nM] | Emax [2, 4] [%] | further results
apelin |  |  | reduction in plasma vasopressin concentrations (vasopressin release): 40%; reduction of aneurysm [1]: 50%
COc1ccccc1-n1c(-c2cccs2)cnc1SCc1cc(=O)n2cc(C)ccc2n1 [Example 79, 2-[1-(2-Methoxy-phenyl)-5-thiophen-2-yl-1H-imidazol-2-ylsulfanylmethyl]-7-methyl-pyrido[1,2-a]pyrimidin-4-one] | 1920 |  | Emax [2]: 54%
COc1ccccc1-n1c(SCc2cc(F)cc(F)c2)nnc1-c1cccs1 [Example 77, 3-(3,5-Difluoro-benzylsulfanyl)-4-(2-methoxy-phenyl)-5-thiophen-2-yl-4H-[1,2,4]triazole] | 8440 | 111 | 
Cc1ccc2nc(CSc3nnc(-c4cccs4)n3-c3ccc(Cl)cc3)cc(=O)n2c1 [Example 26, 2-[4-(4-Chloro-phenyl)-5-thiophen-2-yl-4H-[1,2,4]triazol-3-ylsulfanylmethyl]-7-methyl-pyrido[1,2-a]pyrimidin-4-one] | > 10000 | 86 | 
COc1ccc(-n2c(SCc3cc(=O)n4cc(C)ccc4n3)nnc2-c2cccs2)cc1 [Example 20, 2-[4-(4-Methoxy-phenyl)-5-thiophen-2-yl-4H-[1,2,4]triazol-3-ylsulfanylmethyl]-7-methyl-pyrido[1,2-a]pyrimidin-4-one] | 5000 |  | Emax [2]: 10%
COc1ccccc1-n1c(SCc2csc(-c3ccccc3)n2)nnc1-c1cccs1 [Example 31, 4-(2-Methoxy-phenyl)-3-(2-phenyl-thiazol-4-ylmethylsulfanyl)-5-thiophen-2-yl-4H-[1,2,4]triazole] | 635 |  | Emax [2]: 133%
COc1ccccc1-n1c(SCc2ccc(Cl)cc2)nnc1-c1cccs1 [Example 70, 3-(4-Chloro-benzylsulfanyl)-4-(2-methoxy-phenyl)-5-thiophen-2-yl-4H-[1,2,4]triazole] | 2030 | 134 | 
COc1ccccc1-n1c(SCc2csc(-c3ccc(C(F)(F)F)cc3)n2)nnc1-c1cccs1 [Example 32, 4-(2-Methoxy-phenyl)-3-thiophen-2-yl-5-[2-(4-trifluoromethyl-phenyl)-thiazol-4-ylmethylsulfanyl]-4H-[1,2,4]triazole] | 1460 | 33 | 
COc1ccccc1-n1c(SCc2nc(=O)c3cccc(F)c3[nH]2)nnc1-c1cccs1 [Example 57, 8-Fluoro-2-[4-(2-methoxy-phenyl)-5-thiophen-2-yl-4H-[1,2,4]triazol-3-ylsulfanylmethyl]-1H-quinazolin-4-one] | 140 |  | Emax [2]: 106%
COc1ccccc1-n1c(SCc2ccc(Cl)c(Cl)c2)nnc1-c1cccs1 [Example 71, 3-(3,4-Dichloro-benzylsulfanyl)-4-(2-methoxy-phenyl)-5-thiophen-2-yl-4H-[1,2,4]triazole] | 1220 | 99 | 
COc1ccccc1-n1c(SCc2ccc([N+](=O)[O-])cc2)nnc1-c1cccs1 [Example 72, 4-(2-Methoxy-phenyl)-3-(4-nitro-benzylsulfanyl)-5-thiophen-2-yl-4H-[1,2,4]triazole] | 140 | 106 | 
COc1ccccc1-n1c(SCc2nc(=O)c3cc(F)ccc3[nH]2)nnc1-c1cccs1 [Example 55, 6-Fluoro-2-[4-(2-methoxy-phenyl)-5-thiophen-2-yl-4H-[1,2,4]triazol-3-ylsulfanylmethyl]-1H-quinazolin-4-one] | 9 | 109 | 
COc1ccccc1-n1c(SCc2nc(=O)c3cccc(C)c3[nH]2)nnc1-c1cccs1 [Example 58, 2-[4-(2-Methoxy-phenyl)-5-thiophen-2-yl-4H-[1,2,4]triazol-3-ylsulfanylmethyl]-8-methyl-1H-quinazolin-4-one] | 547 | 134 | 
COc1ccccc1-n1c(OCc2csc(-c3ccccc3)n2)nnc1-c1cccs1 [Example 84] | 680 | 109 | 
COc1ccccc1-n1c(SCc2nc(=O)c3cc(Cl)ccc3[nH]2)nnc1-c1cccs1 [Example 62, 6-Chloro-2-[4-(2-methoxy-phenyl)-5-thiophen-2-yl-4H-[1,2,4]triazol-3-ylsulfanylmethyl]-1H-quinazolin-4-one] | 53.6 | 116 | 
COc1ccccc1-n1c(SCc2ccncn2)nnc1-c1cccs1 [Example 78, 4-[4-(2-Methoxy-phenyl)-5-thiophen-2-yl-4H-[1,2,4]triazol-3-ylsulfanylmethyl]-pyrimidine] |  |  | EC50 [2]: > 10000 nM; Emax [2]: 50%
COc1ccc(-c2nc(CSc3nnc(-c4cccs4)n3-c3ccccc3OC)co2)cc1 [Example 37, 4-(2-Methoxy-phenyl)-3-[2-(4-methoxy-phenyl)-oxazol-4-ylmethylsulfanyl]-5-thiophen-2-yl-4H-[1,2,4]triazole] | 3090 | 138 | 
COc1ccccc1-n1c(-c2cccs2)cnc1OCc1csc(-c2ccccc2)n1 [Example 80] | > 10000 | 31 | 

Continued, in another order:

EC50 [2, 3] [nM] | Emax [2, 4] [%] | Molecule | further results
1510 | 126 | COc1ccccc1-n1c(SCc2cc(=O)n3cc(C)ccc3n2)nnc1-c1ccc(C)cc1 [Example 5, 2-[4-(2-Methoxy-phenyl)-5-p-tolyl-4H-[1,2,4]triazol-3-ylsulfanylmethyl]-7-methyl-pyrido[1,2-a]pyrimidin-4-one] | 
6.74 | 110 | COc1ccccc1-n1c(SCc2cc(=O)n3cc(Cl)ccc3n2)nnc1-c1cccs1 [Example 50, 7-Chloro-2-[4-(2-methoxy-phenyl)-5-thiophen-2-yl-4H-[1,2,4]triazol-3-ylsulfanylmethyl]-pyrido[1,2-a]pyrimidin-4-one] | 
310 | 154 | COc1ccccc1-n1c(SCc2cc(=O)n3cc(C)ccc3n2)nnc1-c1ccco1 [Example 2, 2-[5-Furan-2-yl-4-(2-methoxy-phenyl)-4H-[1,2,4]triazol-3-ylsulfanylmethyl]-7-methyl-pyrido[1,2-a]pyrimidin-4-one] | 
1240 | 134 | COc1cccc(-n2c(SCc3cc(=O)n4cc(C)ccc4n3)nnc2-c2cccs2)c1 [Example 22, 2-[4-(3-Methoxy-phenyl)-5-thiophen-2-yl-4H-[1,2,4]triazol-3-ylsulfanylmethyl]-7-methyl-pyrido[1,2-a]pyrimidin-4-one] | 
70.4 | 118 | COc1ccccc1-n1c(SCc2cc(=O)n3cc(C)ccc3n2)nnc1-c1ccc(C)s1 [Example 11, 2-[4-(2-Methoxy-phenyl)-5-(5-methyl-thiophen-2-yl)-4H-[1,2,4]triazol-3-ylsulfanylmethyl]-7-methyl-pyrido[1,2-a]pyrimidin-4-one] | 
3090 | 80 | COc1ccccc1-n1c(SCc2cc(=O)n3cc(C)ccc3n2)nnc1-c1ccncc1 [Example 4, 2-[4-(2-Methoxy-phenyl)-5-pyridin-4-yl-4H-[1,2,4]triazol-3-ylsulfanylmethyl]-7-methyl-pyrido[1,2-a]pyrimidin-4-one] | 
7.8 | 117 | COc1ccccc1-n1c(SCc2cc(=O)n3cc(Br)ccc3n2)nnc1-c1cccs1 [Example 46, 7-Bromo-2-[4-(2-methoxy-phenyl)-5-thiophen-2-yl-4H-[1,2,4]triazol-3-ylsulfanylmethyl]-pyrido[1,2-a]pyrimidin-4-one] | 
551 | 137 | COc1ccccc1-n1c(SCc2cc(=O)n3cc(C)ccc3n2)nnc1-c1ccc(Br)s1 [Example 8, 2-[5-(5-Bromo-thiophen-2-yl)-4-(2-methoxy-phenyl)-4H-[1,2,4]triazol-3-ylsulfanylmethyl]-7-methyl-pyrido[1,2-a]pyrimidin-4-one] | 
179 | 109 | Cc1ccc2nc(CSc3nnc(-c4cccs4)n3-c3ccccc3C)cc(=O)n2c1 [Example 23, 7-Methyl-2-(5-thiophen-2-yl-4-o-tolyl-4H-[1,2,4]triazol-3-ylsulfanylmethyl)-pyrido[1,2-a]pyrimidin-4-one] | 
25.2 | 54 | COc1ccccc1-n1c(SCc2cc(=O)n3cc(C#N)ccc3n2)nnc1-c1cccs1 [Example 47, 2-[4-(2-Methoxy-phenyl)-5-thiophen-2-yl-4H-[1,2,4]triazol-3-ylsulfanylmethyl]-4-oxo-4H-pyrido[1,2-a]pyrimidine-7-carbonitrile] | 
18.2 | 150 | COc1ccccc1-n1c(SCc2cc(=O)n3cc(C)ccc3n2)nnc1-c1ccc(Br)o1 [Example 10, 2-[5-(5-Bromo-furan-2-yl)-4-(2-methoxy-phenyl)-4H-[1,2,4]triazol-3-ylsulfanylmethyl]-7-methyl-pyrido[1,2-a]pyrimidin-4-one] | 
